Test results published in ChEMBL document CHEMBL5052835, “Slc26a3 inhibitors and use thereof” (2021).
Calls of active or inactive are those of the source. The rule behind the calls is not given here.

Key:
[1] = Inhibition of Slc26a3-mediated HCO3- influx/Cl efflux in rat FRT cells measured by fluorescence assay; format: cell-based
[2] = target: T1, Solute carrier family 26 member 6 (Mus musculus) (UniProt Q8CIW6); assay: Inhibition of mouse Slc26a6-mediated Cl-/ I- exchange at 10 uM measured by cell-based fluorescence assay
T1 sequence (whole entry): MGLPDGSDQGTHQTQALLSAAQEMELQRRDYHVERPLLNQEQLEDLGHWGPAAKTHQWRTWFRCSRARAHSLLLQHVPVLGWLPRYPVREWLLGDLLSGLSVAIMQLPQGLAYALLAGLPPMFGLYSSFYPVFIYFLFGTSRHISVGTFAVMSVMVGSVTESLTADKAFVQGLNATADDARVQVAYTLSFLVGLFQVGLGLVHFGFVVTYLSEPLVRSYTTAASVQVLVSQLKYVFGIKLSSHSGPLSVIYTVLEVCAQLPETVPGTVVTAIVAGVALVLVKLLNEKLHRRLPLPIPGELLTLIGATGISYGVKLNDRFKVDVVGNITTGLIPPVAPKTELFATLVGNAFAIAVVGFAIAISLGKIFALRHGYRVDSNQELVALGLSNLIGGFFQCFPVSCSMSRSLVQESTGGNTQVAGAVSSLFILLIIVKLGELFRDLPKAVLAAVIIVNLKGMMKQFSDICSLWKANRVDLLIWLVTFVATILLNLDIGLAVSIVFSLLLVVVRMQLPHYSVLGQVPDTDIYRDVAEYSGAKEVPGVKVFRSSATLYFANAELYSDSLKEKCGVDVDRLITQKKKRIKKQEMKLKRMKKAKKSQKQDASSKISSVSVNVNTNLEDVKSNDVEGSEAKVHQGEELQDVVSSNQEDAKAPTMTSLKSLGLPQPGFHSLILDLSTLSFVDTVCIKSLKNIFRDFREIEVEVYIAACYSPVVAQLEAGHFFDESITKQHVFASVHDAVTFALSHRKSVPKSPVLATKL

[3] = target: T2, Anoctamin-1 (Mus musculus) (UniProt Q8BHY3); assay: Inhibition of mouse TMEM16A at 10 uM measured by cell-based fluorescence assay
T2 sequence (whole entry): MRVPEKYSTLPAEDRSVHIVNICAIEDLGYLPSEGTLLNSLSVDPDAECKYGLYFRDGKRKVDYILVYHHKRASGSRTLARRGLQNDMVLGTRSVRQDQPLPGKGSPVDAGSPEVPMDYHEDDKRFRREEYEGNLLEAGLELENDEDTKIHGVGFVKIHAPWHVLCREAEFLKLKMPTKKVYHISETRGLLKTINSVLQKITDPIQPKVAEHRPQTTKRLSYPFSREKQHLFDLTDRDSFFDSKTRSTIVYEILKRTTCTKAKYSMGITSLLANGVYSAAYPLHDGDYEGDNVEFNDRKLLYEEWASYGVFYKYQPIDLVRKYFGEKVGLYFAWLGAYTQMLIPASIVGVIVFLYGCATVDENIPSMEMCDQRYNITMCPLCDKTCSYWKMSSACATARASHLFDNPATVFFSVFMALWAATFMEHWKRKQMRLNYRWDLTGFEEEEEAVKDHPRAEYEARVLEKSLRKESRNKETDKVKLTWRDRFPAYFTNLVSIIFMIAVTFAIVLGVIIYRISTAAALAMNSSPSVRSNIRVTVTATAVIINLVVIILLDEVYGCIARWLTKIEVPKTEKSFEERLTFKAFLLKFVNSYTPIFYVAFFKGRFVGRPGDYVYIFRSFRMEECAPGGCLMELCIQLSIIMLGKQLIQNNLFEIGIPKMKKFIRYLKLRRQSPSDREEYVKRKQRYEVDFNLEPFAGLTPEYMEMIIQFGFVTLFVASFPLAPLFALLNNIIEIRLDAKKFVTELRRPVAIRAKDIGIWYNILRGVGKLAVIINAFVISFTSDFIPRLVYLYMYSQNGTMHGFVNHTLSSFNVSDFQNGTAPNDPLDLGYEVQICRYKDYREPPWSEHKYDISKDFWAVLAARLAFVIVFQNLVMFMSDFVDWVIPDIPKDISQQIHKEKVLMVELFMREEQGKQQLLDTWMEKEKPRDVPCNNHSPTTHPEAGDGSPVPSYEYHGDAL

Colon = assay: Inhibition of fluid absorption in distal colonic loop isolated from female CD-1 mouse at 10 uM assessed as effect on reduction in loop weight/length ratio; format: functional, tissue-based
Mus musculus = assay: In vivo inhibition of slc26a3 in loperamide-induced constipation model of female CD-1 mouse at 5 mg/kg, po co-administered with tenapanor assessed as reduction in pellet number; format: functional, organism-based
HBE [4] = assay: Inhibition of ENaC in human HBE cells at 10 uM pretreated with amiloride assessed as effect on short-circuit current responses; format: cell-based
HBE [5] = assay: Inhibition of CaCC in human HBE cells at 10 uM pretreated with ATP assessed as effect on short-circuit current responses; format: cell-based

IC50 [1]: 100 nM
inhibition [2]: inactive
inhibition [3]: inactive
Compound: Cc1c(CC(=O)O)c(=O)oc2c(C)c(OCc3cccc(Br)c3)ccc12
inhibition (Colon): Active
inhibition (Mus musculus): Active
inhibition (HBE [4]): inactive
inhibition (HBE [5]): inactive
